# In patent US10722516B2, “Use of landiolol hydrochloride in the long-term treatment of tachyarrhythmias” (AOP Orphan Pharmaceuticals AG, priority 2013, dated 2020):
# Entries after “also recorded” stand apart in the source; their conditions may differ. Structures can show the parent of a compound that is named as a salt.
# Test system: healthy volunteers
# Assay: 24 h long-term infusion study, AOP LDLL600 against esmolol: heart rate
# Type: in vivo, human
# Settings: for heart rate: Table 1
# Protocol: A single centre prospective, randomized, double blind, crossover, pharmacokinetic, safety and tolerability study to compare long-term infusion administration of AOP LDLL600 against esmolol in healthy volunteers was performed.
# Landiolol hydrochloride lyophilized (LDLL600) comprises 600 mg landiolol hydrochloride, 600 mg mannitol, pH 6.5. The primary packing of LDLL600 is 50 ml vial, the reconstitution volume is 50 ml and the final product concentration is 12 mg/mL landiolol HCl.
# 12 subjects were administered AOP LDLL600 or Esmolol (Brevibloc, 2500 mg/250 ml) in 1:1 ratio in double-blind, randomized, cross-over setting. PK, systemic cardiovascular and local tolerability and safety of the 24 h-long term infusions of three dose levels of both IMPs during each treatment period were assessed.
# Landiolol was infused over 24 h in a dose of 10 μg/KG/min (2 hrs), followed by 20 μg/KG/min (2 hrs), followed by 40 μg/KG/min for 20 hrs.
# Dosing algorithm was body weight divided by 20, 10 and 5 in ml/h giving 10, 20 and 40 μg/KG/min at a concentration of 12 mg/ml. No severe adverse drug reactions, mild local reactions, 1 severe local reaction (Esmolol High Dose).
# Landiolol was infused over 24 h in a dose of 10, 20 and 40 μg/KG/min, i.e. 10 μg/KG/min landiolol were administered for 2 hrs, followed by 2 hrs administration of 20 μg/KG/min and further followed by 20 hrs administration of 40 μg/KG/min.
# Post-infusion follow up measurements were performed immediately after 20 hrs administration study, i.e. 2, 4 min etc. after stop of landiolol administration.
# [1] = LD infusion (landiolol 10, esmolol 50 μg/kg/min), 3 min
# [2] = LD infusion (landiolol 10, esmolol 50 μg/kg/min), 4 min
# [3] = LD infusion (landiolol 10, esmolol 50 μg/kg/min), 6 min
# [4] = LD infusion (landiolol 10, esmolol 50 μg/kg/min), 8 min
# [5] = LD infusion (landiolol 10, esmolol 50 μg/kg/min), 12 min
# [6] = LD infusion (landiolol 10, esmolol 50 μg/kg/min), 16 min
# [7] = LD infusion (landiolol 10, esmolol 50 μg/kg/min), 20 min
# [8] = LD infusion (landiolol 10, esmolol 50 μg/kg/min), 30 min
# [9] = LD infusion (landiolol 10, esmolol 50 μg/kg/min), 60 min
# [10] = LD infusion (landiolol 10, esmolol 50 μg/kg/min), 90 min
# [11] = LD infusion (landiolol 10, esmolol 50 μg/kg/min), 2 h
# [12] = MD infusion (landiolol 20, esmolol 100 μg/kg/min, after 2 h LD), 2 min
# [13] = MD infusion (landiolol 20, esmolol 100 μg/kg/min, after 2 h LD), 3 min
# [14] = MD infusion (landiolol 20, esmolol 100 μg/kg/min, after 2 h LD), 4 min
# [15] = MD infusion (landiolol 20, esmolol 100 μg/kg/min, after 2 h LD), 6 min
# [16] = MD infusion (landiolol 20, esmolol 100 μg/kg/min, after 2 h LD), 8 min
# [17] = MD infusion (landiolol 20, esmolol 100 μg/kg/min, after 2 h LD), 16 min
# [18] = MD infusion (landiolol 20, esmolol 100 μg/kg/min, after 2 h LD), 20 min
# [19] = MD infusion (landiolol 20, esmolol 100 μg/kg/min, after 2 h LD), 30 min
# [20] = MD infusion (landiolol 20, esmolol 100 μg/kg/min, after 2 h LD), 60 min
# [21] = MD infusion (landiolol 20, esmolol 100 μg/kg/min, after 2 h LD), 90 min
# [22] = MD infusion (landiolol 20, esmolol 100 μg/kg/min, after 2 h LD), 2 h
compound,measurement,setting,value
"COC(=O)CCc1ccc(OCC(O)CNC(C)C)cc1 (stereo not drawn) [Esmolol, Esmolol hydrochloride]","heart rate, Mean (SD)","LD infusion (landiolol 10, esmolol 50 μg/kg/min), 2 min",66.9 (6.28) beats per minute
same,"change of heart rate from predose, Mean (SD)",[1],−1.9 (5.34) beats per minute
same,"heart rate, Mean (SD)",[1],65.7 (4.91) beats per minute
same,"change of heart rate from predose, Mean (SD)",[2],−2.1 (7.64) beats per minute
same,"heart rate, Mean (SD)",[2],65.6 (6.44) beats per minute
same,"change of heart rate from predose, Mean (SD)",[3],−1.6 (5.96) beats per minute
same,"heart rate, Mean (SD)",[3],66.0 (4.52) beats per minute
same,"change of heart rate from predose, Mean (SD)",[4],−2.1 (7.05) beats per minute
same,"heart rate, Mean (SD)",[4],65.5 (4.35) beats per minute
same,"change of heart rate from predose, Mean (SD)",[5],−2.4 (6.77) beats per minute
same,"heart rate, Mean (SD)",[5],65.2 (4.74) beats per minute
same,"change of heart rate from predose, Mean (SD)",[6],−2.3 (7.58) beats per minute
same,"heart rate, Mean (SD)",[6],65.4 (5.51) beats per minute
same,"change of heart rate from predose, Mean (SD)",[7],−2.0 (9.49) beats per minute
same,"heart rate, Mean (SD)",[7],65.6 (7.07) beats per minute
same,"change of heart rate from predose, Mean (SD)",[8],−5.1 (6.29) beats per minute
same,"heart rate, Mean (SD)",[8],62.6 (5.05) beats per minute
same,"change of heart rate from predose, Mean (SD)",[9],−4.1 (8.00) beats per minute
same,"heart rate, Mean (SD)",[9],63.6 (4.67) beats per minute
same,"change of heart rate from predose, Mean (SD)",[10],−3.5 (6.55) beats per minute
same,"heart rate, Mean (SD)",[10],64.1 (4.99) beats per minute
same,"change of heart rate from predose, Mean (SD)",[11],−3.9 (7.12) beats per minute
same,"heart rate, Mean (SD)",[11],63.8 (4.89) beats per minute
same,"change of heart rate from predose, Mean (SD)",MD Predose (end of 2 h LD),−3.9 (7.12) beats per minute
same,"heart rate, Mean (SD)",MD Predose (end of 2 h LD),63.8 (4.89) beats per minute
same,"change of heart rate from predose, Mean (SD)",[12],−4.3 (10.36) beats per minute
same,"heart rate, Mean (SD)",[12],63.4 (7.88) beats per minute
same,"change of heart rate from predose, Mean (SD)",[13],−5.1 (8.40) beats per minute
same,"heart rate, Mean (SD)",[13],62.6 (5.50) beats per minute
same,"change of heart rate from predose, Mean (SD)",[14],−2.7 (8.96) beats per minute
same,"heart rate, Mean (SD)",[14],64.9 (9.04) beats per minute
same,"change of heart rate from predose, Mean (SD)",[15],−3.8 (7.45) beats per minute
same,"heart rate, Mean (SD)",[15],63.9 (5.10) beats per minute
same,"change of heart rate from predose, Mean (SD)",[16],−5.6 (7.54) beats per minute
same,"heart rate, Mean (SD)",[16],62.1 (4.46) beats per minute
same,"heart rate, Mean (SD)","MD infusion (landiolol 20, esmolol 100 μg/kg/min, after 2 h LD), 12 min",61.8 (5.07) beats per minute
same,"change of heart rate from predose, Mean (SD)",[17],−3.5 (7.14) beats per minute
same,"heart rate, Mean (SD)",[17],64.1 (5.02) beats per minute
same,"change of heart rate from predose, Mean (SD)",[18],−5.0 (7.34) beats per minute
same,"heart rate, Mean (SD)",[18],62.6 (4.33) beats per minute
same,"change of heart rate from predose, Mean (SD)",[19],−5.6 (8.20) beats per minute
same,"heart rate, Mean (SD)",[19],62.1 (5.00) beats per minute
same,"change of heart rate from predose, Mean (SD)",[20],−1.4 (10.41) beats per minute
same,"heart rate, Mean (SD)",[20],66.2 (5.04) beats per minute
same,"change of heart rate from predose, Mean (SD)",[21],−2.2 (8.59) beats per minute
same,"heart rate, Mean (SD)",[21],65.4 (6.17) beats per minute
same,"change of heart rate from predose, Mean (SD)",[22],−3.9 (7.75) beats per minute
same,"heart rate, Mean (SD)",[22],63.7 (4.86) beats per minute
same,"heart rate, Mean (SD)",Predose (before first IMP administration),67.6 (7.87) beats per minute
same,heart rate,Control (before administration),67 beats per minute
same,heart rate,"high dose (landiolol 40, esmolol 200 μg/kg/min), time 720 min",67.9 beats per minute
same,heart rate,"high dose (landiolol 40, esmolol 200 μg/kg/min), time 1200 min",67.9 beats per minute
same,heart rate,"low dose (landiolol 10, esmolol 50 μg/kg/min), time 12 min",65.2 beats per minute
same,heart rate,"low dose (landiolol 10, esmolol 50 μg/kg/min), time 16 min",65.4 beats per minute
same,heart rate,"low dose (landiolol 10, esmolol 50 μg/kg/min), time 30 min",62.6 beats per minute
same,heart rate,"low dose (landiolol 10, esmolol 50 μg/kg/min), time 60 min",63.6 beats per minute
same,heart rate,"low dose (landiolol 10, esmolol 50 μg/kg/min), time 120 min",63.8 beats per minute
same,heart rate,"medium dose (landiolol 20, esmolol 100 μg/kg/min), time 240 min",63.7 beats per minute
same,heart rate,time after administration 12 min (end at 1440 min),74.7 beats per minute
same,heart rate,time after administration 16 min,74 beats per minute
same,heart rate,time after administration 30 min,76.8 beats per minute
same,heart rate,time after administration 60 min,73.1 beats per minute
same,heart rate,time after administration 120 min,70.2 beats per minute
same,overshoot effect on heart rate,"after termination of long term administration, hydrochloride",the heart rate and blood pressure raise immediately over control values; also recorded: significant tolerance and overshoot effect
same,additive effect of raising the dose (tolerance state),"esmolol MD, HD",does not provide any additive effect
same,heart rate effect during administration,long term administration,relative increase of the heart rate and blood pressure already after 60 minutes of administration
same,tolerance effect,long term administration,significant tolerance and overshoot effect
same,remark on heart rate response after infusion stop,"remark column of Table 2, FU time points 20 h 6 min to 21 h",overshoot
same,remark on heart rate response during infusion,"remark column of Table 2, time points MD 60 min to HD 20 h (end)",Tolerance state
